Assay results as given in US11655235B2, “Pyrrolidine and piperidine compounds” (YUHAN CORPORATION, priority 2019, dated 2023).

Assays:
Recombinant human FAP = molecular target: T1, Recombinant human FAP (Homo sapiens, UniProt Q12884); assay: FAP inhibition, fluorogenic substrate Z-Gly-Pro-AMC; type: biochemical; settings: for IC50: 25° C., Z-Gly-Pro-AMC substrate; for inhibition at 1 µM: read-out: hFAP inhibition % at 1 μM
T1 construct: purchased R&D systems
T1 sequence (Q12884 1-760): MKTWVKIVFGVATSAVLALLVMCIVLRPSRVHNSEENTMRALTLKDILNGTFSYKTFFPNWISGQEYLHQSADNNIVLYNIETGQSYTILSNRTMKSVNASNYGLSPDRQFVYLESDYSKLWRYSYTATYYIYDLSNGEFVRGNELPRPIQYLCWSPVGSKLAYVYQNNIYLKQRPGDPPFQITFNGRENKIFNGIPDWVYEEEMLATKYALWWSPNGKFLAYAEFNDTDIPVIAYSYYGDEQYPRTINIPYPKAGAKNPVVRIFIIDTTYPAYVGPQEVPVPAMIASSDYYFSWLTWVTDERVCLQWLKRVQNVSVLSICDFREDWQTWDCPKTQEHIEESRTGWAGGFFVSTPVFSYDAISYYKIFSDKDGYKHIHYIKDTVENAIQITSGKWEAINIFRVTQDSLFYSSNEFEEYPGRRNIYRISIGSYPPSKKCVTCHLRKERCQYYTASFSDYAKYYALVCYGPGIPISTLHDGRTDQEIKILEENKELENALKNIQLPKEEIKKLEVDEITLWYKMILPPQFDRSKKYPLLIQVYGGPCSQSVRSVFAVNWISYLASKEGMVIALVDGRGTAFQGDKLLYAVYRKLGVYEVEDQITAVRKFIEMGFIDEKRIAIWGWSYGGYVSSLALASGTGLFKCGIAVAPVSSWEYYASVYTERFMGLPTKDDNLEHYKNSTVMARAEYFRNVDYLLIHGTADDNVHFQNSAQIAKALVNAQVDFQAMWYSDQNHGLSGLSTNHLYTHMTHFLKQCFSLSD
Procedure: The compounds according to the present technology were evaluated in terms of the inhibitory effect on the activity of dipeptidyl peptidases including FAP by using a substrate producing fluorescent substances upon enzymatic decomposition. The test was conducted at 25° C. to get a final reaction volume of 100 μL in a 96 black well plate. […] Briefly, the test compounds were dissolved in dimethyl sulfoxide (DMSO) at a concentration of 20 mM and then subjected to serial dilution, thereby creating an 8 point curve. As for the control group, a 6 point curve created by serial dilution of Talabostat in the same buffer solution was used. Fluorescence intensity was measured using a microplate reader (Flexstation3, Molecular Devices) under the wavelength condition exciting at 380 nm and reading the emission at 460 nm. The inhibitory effect of the test compounds was measured as a decrease (%) in the signal rate as compared to the control group without any inhibitor. Data was fixed to a logistic model with four variables and IC50 value was calculated using GraphPad Prism program. Recombinant human FAP (R&D systems) was diluted with 50 mM tris (pH 7.5) buffer comprising 1 M of sodium chloride and 1 mg/ml of bovine serum albumin (BSA) to be 10 ng per final reaction. The test compounds were subjected to serial dilution in a buffer under the condition containing up to 0.1% of DMSO. Z-Gly-Pro-AMC (Bachem) was used as a substrate. By dissolving in DMSO and then diluting in the same buffer, the substrate was added to be […] per final reaction.

DPP4 = DPP4 (Homo sapiens, UniProt P27487); assay: DPP4 inhibition, fluorogenic substrate H-Gly-Pro-AMC; type: biochemical; set-up: purchased R&D Systems; settings: for inhibition at 1 µM: read-out: hDPP4 inhibition % at 1 μM
Procedure: The compounds according to the present technology were evaluated in terms of the inhibitory effect on the activity of dipeptidyl peptidases including FAP by using a substrate producing fluorescent substances upon enzymatic decomposition. The test was conducted at 25° C. to get a final reaction volume of 100 μL in a 96 black well plate. […] Briefly, the test compounds were dissolved in dimethyl sulfoxide (DMSO) at a concentration of 20 mM and then subjected to serial dilution, thereby creating an 8 point curve. As for the control group, a 6 point curve created by serial dilution of Talabostat in the same buffer solution was used. Fluorescence intensity was measured using a microplate reader (Flexstation3, Molecular Devices) under the wavelength condition exciting at 380 nm and reading the emission at 460 nm. The inhibitory effect of the test compounds was measured as a decrease (%) in the signal rate as compared to the control group without any inhibitor. Data was fixed to a logistic model with four variables and IC50 value was calculated using GraphPad Prism program. As for recombinant human DPP4 (R&D Systems), 25 mM tris (pH 8.0) buffer as a buffer solution and H-Gly-Pro-AMC (Bachem) as a substrate were used. As for recombinant human DPP7 (R&D Systems), 25 mM MES (pH 6.0) buffer as a buffer solution and Lys-Pro-AMC (Bachem) as a substrate were used. As for recombinant human DPP8 (PBS Bioscience), as a buffer solution, a 10 mM tris (pH 7.4) buffer comprising 10 mM of magnesium chloride and 0.05% of Tween 20, and Z-Ala-Pro-AMC (BPS Bioscience) as a substrate were used. As for recombinant human DPP9 (R&D Systems), a 25 mM tris (pH 8.0) buffer as a buffer solution and H-Gly-Pro-AMC (Bachem) as a substrate were used. As for recombinant human PREP (R&D System), as a buffer solution, a 25 mM tris (pH 7.5) buffer comprising 250 mM sodium chloride and 2.5 mM DTT (Dithiolthreitol), and Z-Gly-Pro-AMC (Bachem) as a substrate were used. The evaluation was made by using 10 ng of DPP4, PDD7, and PREP, 20 ng of DPP8, and 50 ng of DPP9 based on the final reaction. In the evaluation of DPP4, the test compounds were subjected to serial dilution in a buffer under the condition containing up to 0.1% of DMSO. In the evaluation of DPP7, DPP8, DPP9, and PREP, the test compounds were subjected to serial dilution in each buffer under the condition containing up to 0.5% of DMSO.

Sequence of DPP4 (P27487 whole entry): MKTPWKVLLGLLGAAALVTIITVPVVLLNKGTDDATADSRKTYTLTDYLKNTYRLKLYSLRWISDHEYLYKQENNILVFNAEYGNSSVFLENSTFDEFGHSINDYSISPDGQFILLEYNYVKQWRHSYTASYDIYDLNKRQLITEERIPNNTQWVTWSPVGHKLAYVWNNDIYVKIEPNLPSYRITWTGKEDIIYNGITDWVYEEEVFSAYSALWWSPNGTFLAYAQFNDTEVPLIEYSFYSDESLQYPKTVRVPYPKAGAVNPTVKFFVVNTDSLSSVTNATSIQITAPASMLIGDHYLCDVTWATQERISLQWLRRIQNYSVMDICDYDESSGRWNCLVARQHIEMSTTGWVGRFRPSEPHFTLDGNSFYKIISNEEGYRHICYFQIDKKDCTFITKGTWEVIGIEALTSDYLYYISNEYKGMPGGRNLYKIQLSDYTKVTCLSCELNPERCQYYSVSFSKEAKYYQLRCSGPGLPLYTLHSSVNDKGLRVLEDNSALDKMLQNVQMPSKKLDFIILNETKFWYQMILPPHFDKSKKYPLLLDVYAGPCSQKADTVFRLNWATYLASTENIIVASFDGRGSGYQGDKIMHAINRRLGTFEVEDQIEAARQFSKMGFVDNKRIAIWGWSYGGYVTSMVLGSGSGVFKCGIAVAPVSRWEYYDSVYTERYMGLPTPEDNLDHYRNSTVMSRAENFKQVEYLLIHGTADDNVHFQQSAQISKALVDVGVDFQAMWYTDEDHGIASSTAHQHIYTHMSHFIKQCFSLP

Structure (SMILES): N#C[C@@H]1CCCN1C(=O)CN1CC[C@H](Oc2nccc3scc(Br)c23)C1 [Example 70, (S)-1-(2-((S)-3-((3-bromothieno[3,2-c]pyridin-4-yl)oxy)pyrrolidin-1-yl)acetyl)pyrrolidine-2-carbonitrile]
- IC50 (Recombinant human FAP): 31.9 nM
- inhibition at 1 µM (DPP4): 22.6%

Structure (SMILES): N#C[C@@H]1CCCN1C(=O)CN1CC[C@H](Oc2ccc(Cl)c3ccccc23)C1 [Example 71, (S)-1-(2-((S)-3-((4-chloronaphthalen-1-yl)oxy)pyrrolidin-1-yl)acetyl)pyrrolidine-2-carbonitrile]
- IC50 (Recombinant human FAP): 42.6 nM
- hDPP4 inhibition % at 1 μM (DPP4): No inhibition**

Structure (SMILES): N#C[C@@H]1CCCN1C(=O)CN1CC[C@H](Oc2ccccc2-c2cc[nH]n2)C1 [Example 72, (S)-1-(2-((S)-3-(2-(1H-pyrazol-3-yl)phenoxy)pyrrolidin-1-yl)acetyl)pyrrolidine-2-carbonitrile]
- IC50 (Recombinant human FAP): 101 nM
- inhibition at 1 µM (DPP4): 0.8%

Structure (SMILES): N#C[C@@H]1CCCN1C(=O)CN1CC[C@H](Oc2cccc3c(Cl)ncnc23)C1 [Example 73, (S)-1-(2-((S)-3-((4-chloroquinazolin-8-yl)oxy)pyrrolidin-1-yl)acetyl)pyrrolidine-2-carbonitrile]
- inhibition at 1 µM (Recombinant human FAP): 97.1%
- inhibition at 1 µM (DPP4): 1.2%

Structure (SMILES): N#C[C@@H]1CCCN1C(=O)CN1CC[C@H](Oc2ccc3ncnc(Cl)c3c2)C1 [Example 74, (S)-1-(2-((S)-3-((4-chloroquinazolin-6-yl)oxy)pyrrolidin-1-yl)acetyl)pyrrolidine-2-carbonitrile]
- inhibition at 1 µM (Recombinant human FAP): 92.3%
- hDPP4 inhibition % at 1 μM (DPP4): No inhibition**

Structure (SMILES): N#C[C@@H]1CCCN1C(=O)CN1CC[C@H](Oc2cccc3c2CCC(=O)N3)C1 [Example 76, (S)-1-(2-((S)-3-((2-oxo-1,2,3,4-tetrahydroquinolin-5-yl)oxy)pyrrolidin-1-yl)acetyl)pyrrolidine-2-carbonitrile]
- IC50 (Recombinant human FAP): 53.6 nM
- hDPP4 inhibition % at 1 μM (DPP4): No inhibition**

Structure (SMILES): N#C[C@@H]1CCCN1C(=O)CN1CC[C@H](Oc2ccc3c(c2)CCC(=O)N3)C1 [Example 77, (S)-1-(2-((S)-3-((2-oxo-1,2,3,4-tetrahydroquinolin-6-yl)oxy)pyrrolidin-1-yl)acetyl)pyrrolidine-2-carbonitrile]
- IC50 (Recombinant human FAP): 82.3 nM
- inhibition at 1 µM (DPP4): 0.4%

Structure (SMILES): Cc1ccc2cccc(O[C@H]3CCN(CC(=O)N4CCC[C@H]4C#N)C3)c2n1 [Example 78, (S)-1-(2-((S)-3-((2-methylquinolin-8-yl)oxy)pyrrolidin-1-yl)acetyl)pyrrolidine-2-carbonitrile]
- IC50 (Recombinant human FAP): 22.5 nM
- hDPP4 inhibition % at 1 μM (DPP4): No inhibition**

Structure (SMILES): N#C[C@@H]1CCCN1C(=O)CN1CC[C@H](Oc2ccnc3cc(Cl)ccc23)C1 [Example 79, (S)-1-(2-((S)-3-((7-chloroquinolin-4-yl)oxy)pyrrolidin-1-yl)acetyl)pyrrolidine-2-carbonitrile]
- IC50 (Recombinant human FAP): 17.9 nM
- inhibition at 1 µM (DPP4): 4.6%

Structure (SMILES): N#C[C@@H]1CCCN1C(=O)CN1CC[C@H](Oc2ccnc3cc(Br)ccc23)C1 [Example 80, (S)-1-(2-((S)-3-((7-bromoquinolin-4-yl)oxy)pyrrolidin-1-yl)acetyl)pyrrolidine-2-carbonitrile]
- IC50 (Recombinant human FAP): 20.5 nM
- inhibition at 1 µM (DPP4): 5.1%

Structure (SMILES): N#C[C@@H]1CCCN1C(=O)CN1CC[C@H](Oc2cccc(-c3ccccc3)c2)C1 [Example 82, (S)-1-(2-((S)-3-([1,1′-biphenyl]-3-yloxy)pyrrolidin-1-yl)acetyl)pyrrolidine-2-carbonitrile]
- inhibition at 1 µM (Recombinant human FAP): 72.6%
- inhibition at 1 µM (DPP4): 6.5%

Structure (SMILES): N#C[C@@H]1CCCN1C(=O)CN1CC[C@H](Oc2ccc(-c3ccccc3)cc2)C1 [Example 83, (S)-1-(2-((S)-3-([1,1′-biphenyl]-4-yloxy)pyrrolidin-1-yl)acetyl)pyrrolidine-2-carbonitrile]
- inhibition at 1 µM (Recombinant human FAP): 68.1%
- inhibition at 1 µM (DPP4): 6.3%

Structure (SMILES): N#C[C@@H]1CCCN1C(=O)CN1CC[C@H](Oc2ccnc3c(F)c(F)ccc23)C1 [Example 85, (S)-1-(2-((S)-3-((7,8-difluoroquinolin-4-yl)oxy)pyrrolidin-1-yl)acetyl)pyrrolidine-2-carbonitrile]
- IC50 (Recombinant human FAP): 19.9 nM
- inhibition at 1 µM (DPP4): 5.9%

Structure (SMILES): COC(=O)C1Cc2ccc(O[C@H]3CCN(CC(=O)N4CCC[C@H]4C#N)C3)cc2O1 (stereo partly drawn) [Example 86, Methyl 6-(((S)-1-(2-((S)-2-cyanopyrrolidin-1-yl)-2-oxoethyl)pyrrolidin-3-yl)oxy)-2,3-dihydrobenzofuran-2-carboxylate]
- inhibition at 1 µM (Recombinant human FAP): 70.7%
- inhibition at 1 µM (DPP4): 6.8%

Structure (SMILES): N#C[C@@H]1CCCN1C(=O)CN1CC[C@H](Oc2ccc(Oc3ccccc3)cc2)C1 [Example 87, (S)-1-(2-((S)-3-(4-phenoxyphenoxy)pyrrolidin-1-yl)acetyl)pyrrolidine-2-carbonitrile]
- inhibition at 1 µM (Recombinant human FAP): 51.9%
- inhibition at 1 µM (DPP4): 6.9%

Structure (SMILES): N#C[C@@H]1CCCN1C(=O)CN1CC[C@H](Oc2cccc(Oc3ccccc3)c2)C1 [Example 88, (S)-1-(2-((S)-3-(3-phenoxyphenoxy)pyrrolidin-1-yl)acetyl)pyrrolidine-2-carbonitrile]
- inhibition at 1 µM (Recombinant human FAP): 57.9%
- inhibition at 1 µM (DPP4): 6.1%

Structure (SMILES): N#C[C@@H]1CCCN1C(=O)CN1CC[C@H](Oc2ccc(Cc3ccccc3)cc2)C1 [Example 89, (S)-1-(2-((S)-3-(4-benzylphenoxy)pyrrolidin-1-yl)acetyl)pyrrolidine-2-carbonitrile]
- inhibition at 1 µM (Recombinant human FAP): 56.8%
- inhibition at 1 µM (DPP4): 7.9%

Structure (SMILES): N#C[C@@H]1CCCN1C(=O)CN1CC[C@H](Oc2ccccc2Cc2ccccc2)C1 [Example 90, (S)-1-(2-((S)-3-(2-benzylphenoxy)pyrrolidin-1-yl)acetyl)pyrrolidine-2-carbonitrile]
- inhibition at 1 µM (Recombinant human FAP): 52.9%
- inhibition at 1 µM (DPP4): 7.7%

Structure (SMILES): N#C[C@@H]1CCCN1C(=O)CN1CC[C@H](Oc2cccc(C(=O)c3ccccc3)c2)C1 [Example 91, (S)-1-(2-((S)-3-(3-benzoylphenoxy)pyrrolidin-1-yl)acetyl)pyrrolidine-2-carbonitrile]
- inhibition at 1 µM (Recombinant human FAP): 59.2%
- inhibition at 1 µM (DPP4): 9.1%

Structure (SMILES): N#C[C@@H]1CCCN1C(=O)CN1CC[C@H](Oc2ccc(C(=O)c3ccccc3)cc2)C1 [Example 92, (S)-1-(2-((S)-3-(4-benzoylphenoxy)pyrrolidin-1-yl)acetyl)pyrrolidine-2-carbonitrile]
- inhibition at 1 µM (Recombinant human FAP): 56.4%
- inhibition at 1 µM (DPP4): 10.2%
